Data on 24 compounds can be found in patent publication US8648076B2, “Cysteine protease inhibitors and their therapeutic applications” (Hybrigenics SA, priority 2005, dated 2014).

Holding throughout (type): biochemical
Experiment [1] addresses T1, USP5 (Homo sapiens, UniProt P45974).
T1 sequence (P45974 1-858): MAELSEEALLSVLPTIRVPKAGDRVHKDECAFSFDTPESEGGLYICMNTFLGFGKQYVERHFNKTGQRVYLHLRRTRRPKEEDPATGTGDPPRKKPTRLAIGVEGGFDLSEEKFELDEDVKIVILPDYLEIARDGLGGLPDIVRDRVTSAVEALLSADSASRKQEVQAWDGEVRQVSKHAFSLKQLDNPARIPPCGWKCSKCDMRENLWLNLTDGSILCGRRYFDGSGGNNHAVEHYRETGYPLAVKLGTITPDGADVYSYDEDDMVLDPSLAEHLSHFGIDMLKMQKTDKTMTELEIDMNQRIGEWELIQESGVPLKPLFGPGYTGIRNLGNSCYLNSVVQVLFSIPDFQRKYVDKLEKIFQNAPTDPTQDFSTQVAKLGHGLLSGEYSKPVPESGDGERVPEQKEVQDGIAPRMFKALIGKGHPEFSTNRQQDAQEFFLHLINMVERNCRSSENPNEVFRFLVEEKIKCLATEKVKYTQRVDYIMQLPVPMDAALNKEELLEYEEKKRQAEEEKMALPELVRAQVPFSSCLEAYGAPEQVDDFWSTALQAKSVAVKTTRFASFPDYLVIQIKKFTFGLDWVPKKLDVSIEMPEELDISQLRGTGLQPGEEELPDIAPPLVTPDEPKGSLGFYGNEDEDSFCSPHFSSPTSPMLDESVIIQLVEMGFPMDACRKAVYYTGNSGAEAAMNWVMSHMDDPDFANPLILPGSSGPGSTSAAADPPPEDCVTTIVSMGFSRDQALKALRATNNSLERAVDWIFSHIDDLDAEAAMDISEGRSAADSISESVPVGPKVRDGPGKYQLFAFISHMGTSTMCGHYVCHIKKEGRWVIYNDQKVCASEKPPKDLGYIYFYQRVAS
The experiment can be described thus: USP5 activity assay. The note with it: 400 nM Ub-AMC, 300 pM enzyme, 30 min pre-incubation at 25° C., 60 min at 37° C.; sigmoidal fit; AF: Autofluorescent; read-out: USP 5 (inhibition of cysteine protease activity). The method, then: Bovine Serum Albumin 0.05 mg·ml^−1 pH7.6). Compounds stocks (100 mM) were stored at −20° C. in DMSO. […] Reactions were performed as duplicates in Black LJL 96 well plates (HE microplates; Molecular Devices; 20 μl final reaction volume). The substrate concentration for USP5 was 400 nM Ub-AMC (Boston Biochem). The concentrations of the enzyme (USP5) in specificity assays was 300 pM. The concentrations were determined in order to perform specificity assays under initial velocities at fixed substrate concentration. Compounds were pre-incubated with enzymes for 30 minutes at 25° C. Reactions were initiated by addition of substrate to the plates containing the enzymes (+/− compounds) diluted in assay buffer. Reactions were incubated for 60 minutes at 37° C. Reactions were stopped by adding acetic acid (100 mM final). Readings were performed on a Pherastar Fluorescent Reader (BMG). λ Emission 380 nm; λ Excitation=460 nm. Data (mean values +/− standard deviation) were analyzed as % of control (no compound) and plotted as percentage versus the Log of the compound concentration using GraphPad (Prism). Data were fitted to a sigmoidal model (variable slope).

Experiment [2] concerns the target T2, USP7 (Homo sapiens, UniProt Q93009).
T2 construct: His tag (from pFastBac-HT vector) (N); made in house; host or cells: insect cells (Sf9 or High Five), baculovirus
The experiment can be described thus: USP7 activity assay.

In experiment [3] the target is Cathepsin B (Homo sapiens, UniProt P07858). The experiment can be described thus: Cathepsin B activity assay. The note with it: 36 μM z-RR-AMC, 3.6 nM enzyme, 30 min pre-incubation at 25° C., 60 min at 37° C.; sigmoidal fit; AF: Autofluorescent; read-out: cathepB (inhibition of cysteine protease activity). The protocol: Cathepsin B was diluted in Cathepsin B buffer (20 mM Tris HCl pH 6.8; 1 mM EDTA; 1 mM DTT). Compounds stocks (100 mM) were stored at −20° C. in DMSO. […] Reactions were performed as duplicates in Black LJL 96 well plates (HE microplates; Molecular Devices; 20 μl final reaction volume). The substrate concentration for cathepsin B specificity assay was 36 μM (z-RR-AMC; Calbiochem). The concentration of the enzyme (Cathepsin B) in specificity assays was 3.6 nM. The concentrations were determined in order to perform specificity assays under initial velocities at fixed substrate concentration. Compounds were pre-incubated with enzymes for 30 minutes at 25° C. Reactions were initiated by addition of substrate to the plates containing the enzymes (+/− compounds) diluted in assay buffer. Reactions were incubated for 60 minutes at 37° C. Reactions were stopped by adding acetic acid (100 mM final). Readings were performed on a Pherastar Fluorescent Reader (BMG). δ Emission 380 nm; 6 Excitation=460 nm. Data (mean values+/− standard deviation) were analyzed as % of control (no compound) and plotted as percentage versus the Log of the compound concentration using GraphPad (Prism). Data were fitted to a sigmoidal model (variable slope).

Where [4] appears, read: 400 nM Ub-AMC, 152 pM enzyme, 30 min pre-incubation at 25° C., 60 min at 37° C., sigmoidal fit, read-out: USP 7 (inhibition of cysteine protease activity).

Read-outs that look alike come from different tables or passages of the source.

T2 sequence (Q93009 whole entry): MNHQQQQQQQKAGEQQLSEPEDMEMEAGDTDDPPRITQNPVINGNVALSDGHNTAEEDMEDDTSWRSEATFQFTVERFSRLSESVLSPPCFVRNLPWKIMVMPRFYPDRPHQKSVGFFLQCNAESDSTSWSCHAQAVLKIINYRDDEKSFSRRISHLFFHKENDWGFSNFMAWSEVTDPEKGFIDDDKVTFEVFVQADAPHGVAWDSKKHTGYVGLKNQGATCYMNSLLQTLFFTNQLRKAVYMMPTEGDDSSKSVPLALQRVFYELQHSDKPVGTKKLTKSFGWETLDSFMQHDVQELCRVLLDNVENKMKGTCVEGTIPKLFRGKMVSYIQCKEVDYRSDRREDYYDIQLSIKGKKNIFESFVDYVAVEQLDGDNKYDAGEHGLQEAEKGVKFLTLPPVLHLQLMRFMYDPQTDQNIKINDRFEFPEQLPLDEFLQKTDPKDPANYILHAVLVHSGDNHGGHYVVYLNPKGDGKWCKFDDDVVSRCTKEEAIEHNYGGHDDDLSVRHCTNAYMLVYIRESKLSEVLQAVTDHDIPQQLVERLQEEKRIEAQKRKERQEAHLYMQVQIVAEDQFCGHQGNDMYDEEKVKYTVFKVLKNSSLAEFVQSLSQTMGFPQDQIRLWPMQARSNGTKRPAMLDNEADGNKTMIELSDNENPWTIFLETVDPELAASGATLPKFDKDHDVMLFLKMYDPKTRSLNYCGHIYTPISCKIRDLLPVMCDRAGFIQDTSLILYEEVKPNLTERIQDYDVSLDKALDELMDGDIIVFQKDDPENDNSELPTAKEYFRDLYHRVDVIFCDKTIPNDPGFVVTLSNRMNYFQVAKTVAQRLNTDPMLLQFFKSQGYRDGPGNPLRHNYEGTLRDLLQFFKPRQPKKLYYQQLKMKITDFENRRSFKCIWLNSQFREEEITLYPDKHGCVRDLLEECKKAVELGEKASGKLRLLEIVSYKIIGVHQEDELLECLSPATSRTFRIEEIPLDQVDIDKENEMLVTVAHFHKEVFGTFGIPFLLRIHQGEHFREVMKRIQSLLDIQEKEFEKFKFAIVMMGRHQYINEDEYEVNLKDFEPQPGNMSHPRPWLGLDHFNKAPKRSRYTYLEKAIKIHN

Turning to `N#Cc1nc2c(nc1C#N)-c1ccccc1C2=NOCc1ccccc1` (mixture of isomers) [Example 13C, 9-Benzyloxyimino-9H-indeno[1,2-b]pyrazine-2,3-dicarbonitrile], the IC50 in experiment [1], in experiment [2] (setting [4]) and in experiment [3] was above 100 µM each time.

With `C=CCON=C1c2ccccc2-c2nc(C#N)c(C#N)nc21` (mixture of isomers) [Example 13b, 9-(Allyloxyimino)-9H-indeno[1,2-b]pyrazine-2,3-dicarbonitrile], the IC50 in experiment [1], in experiment [2] and in experiment [3] was above 100 µM in each case.

In the case of `CCON=C1c2ccccc2-c2nc(C#N)c(C#N)nc21` (mixture of isomers) [Example 13d, 9-Ethoxyimino-9H-indeno[1,2-b]pyrazine-2,3-dicarbonitrile], the IC50 in experiment [1], in experiment [2] (setting [4]) and in experiment [3] was above 100 µM in each case.

Turning to `N#Cc1nc2c(nc1C#N)-c1ccccc1C2=Nc1ccccc1` (mixture of isomers) [Example 14, 9-[phenylimino]-9H-indeno[1,2-b]pyrazine-2,3-dicarbonitrile], the IC50 in experiment [1] was determined as 1.9 µM; in experiment [2] (setting [4]) it was 4.1 µM; in experiment [3] it was 74 µM.

Regarding `CC(=O)O/N=C1\c2ccccc2-c2nc(C(N)=O)c(C#N)nc21` (single isomer, unassigned) [Example 35, 2-cyano-9-acetoxyimino-9H-indeno[1,2-b]pyrazine-3-carboxylic acid amide], the IC50 came to 0.161 µM in experiment [1], 0.506 µM in experiment [2] and 11.5 µM in experiment [3].

Turning to `N#Cc1nc2c(nc1C#N)-c1ccccc1C2=O` [Example 1, 9-oxo-9H-indeno[1,2-b]pyrazine-2,3-dicarbonitrile], the values for the IC50 in experiment [1], in experiment [2] (setting [4]) and in experiment [3] were 1.3 µM, 3.5 µM and 12 µM, respectively.

Consider `COc1nc2c(nc1C#N)C(=O)c1ccccc1-2` [Example 3, 3-methoxy-9-oxo-9H-indeno[1,2-b]pyrazine-2-carbonitrile], for which the IC50 in experiment [1], in experiment [2] (setting [4]) and in experiment [3] was above 100 µM in each case.

Turning to `CN(C)c1nc2c(nc1C#N)C(=O)c1ccccc1-2` [Example 4, 3-dimethylamino-9-oxo-9H-indeno[1,2-b]pyrazine-2-carbonitrile], the IC50 in experiment [1], in experiment [2] (setting [4]) and in experiment [3] was above 100 µM throughout.

Take `COCCOc1nc2c(nc1C#N)C(=O)c1ccccc1-2` [Example 5, 3-(2-methoxy-ethoxy)-9-oxo-9H-indeno[1,2-b]pyrazine-2-carbonitrile]: the IC50 in experiment [1], in experiment [2] (setting [4]) and in experiment [3] was above 100 µM each time.

As for `N#Cc1nc2c(nc1O)-c1ccccc1C2=O` [Example 6, 3-hydroxy-9-oxo-9H-indeno[1,2-b]pyrazine-2-carbonitrile], the IC50 in experiment [1] was 9.1 µM; in experiment [2] (setting [4]), 21.8 µM; in experiment [3], above 100 µM.

For the compound `N#Cc1nc2c(nc1N)-c1ccccc1C2=O` [Example 7, 3-amino-9-oxo-9H-indeno[1,2-b]pyrazine-2-carbonitrile], the IC50 in experiment [1], in experiment [2] (setting [4]) and in experiment [3] was above 100 µM throughout.

Take `N#Cc1nc2c(nc1N1CCC(F)(F)CC1)-c1ccccc1C2=O` [Example 8, 3-(4,4-difluoro-piperidin-1-yl)-9-oxo-9H-indeno[1,2-b]-pyrazine-2-carbonitrile]: the IC50 in experiment [1], in experiment [2] (setting [4]) and in experiment [3] was above 100 µM each time.

`N#Cc1nc2c(nc1C#N)C1(OCCO1)c1ccccc1-2` [Example 10]: the IC50 in experiment [1] and in experiment [3] was above 100 µM each time.

`N#Cc1nc2c(nc1C(N)=O)-c1ccccc1/C2=N\O` [Example 11, 2-cyano-9-[hydroxyimino]-9H-indeno[1,2-b]pyrazine-3-carboxylic acid amide]: the IC50 in experiment [1] came to 2.1 µM; in experiment [2] (setting [4]), 13 µM.

Turning to `COc1ccc2c(c1)-c1nc(C#N)c(C#N)nc1C2=O` [Example 17a, 6-Methoxy-9-oxo-9H-indeno[1,2-b]pyrazine-2,3-dicarbonitrile], the IC50 in experiment [1] is 29 µM; in experiment [2] (setting [4]) it was above 100 µM.

Turning to `CCO/C(O)=C(\C#N)c1nc2c(nc1C#N)C(=O)c1ccccc1-2` [Example 22, 3-(1-cyano-2-ethoxy-2-hydroxy-vinyl)-9-oxo-9H-indeno[1,2-b]pyrazine-2-carbonitrile], the IC50 in experiment [1] and in experiment [3] was above 100 µM throughout.

`C=CCON=C1c2ccc(Cl)cc2-c2nc(C#N)c(C#N)nc21` [Example 27c, 9-Allyloxyimino-6-chloro-9H-indeno[1,2-b]pyrazine-2,3-dicarbonitrile]: the IC50 in experiment [1] was found to be 1.7 µM; in experiment [2] it was 3.5 µM.

Consider `Cc1c(F)ccc2c1C(=O)c1nc(C#N)c(C#N)nc1-2` [Example 30, 7-Fluoro-8-methyl-9-oxo-9H-indeno[1,2-b]pyrazine-2,3-dicarbonitrile], for which the results for the IC50 in experiment [1] and in experiment [2] (setting [4]) were 1.61 µM and 2.22 µM, respectively.

In the case of `N#Cc1nc2c(nc1C#N)-c1cc(Cl)c(Cl)cc1C2=O` [Example 31, 6,7-dichloro-9-oxo-9H-indeno[1,2-b]pyrazine-2,3-dicarbonitrile], the IC50 in experiment [1] was found to be 0.329 µM; in experiment [2] it was 0.591 µM.

On to `N#Cc1nc2c(nc1C(N)=O)-c1ccccc1C2=O` [Example 36, 2-cyano-9-oxo-9H-indeno[1,2-b]pyrazine-3-carboxylic acid amide], for which the IC50 came to 0.208 µM in experiment [1] and 1.27 µM in experiment [2].

Turning to `CCOC(=O)CO/N=C1\c2ccccc2-c2nc(C(N)=O)c(C#N)nc21` [Example 37, (3-carbamoyl-2-cyano-indeno[1,2-b]pyrazin-9-ylideneaminooxy)-acetic acid ethyl ester], the values for the IC50 in experiment [1] and in experiment [2] (setting [4]) were 0.799 µM and 2.33 µM, respectively.

In the case of `N#Cc1nc2c(nc1C(N)=O)-c1ccccc1/C2=N\OCC(=O)O` [Example 38, (3-carbamoyl-2-cyano-indeno[1,2-b]pyrazin-9-ylideneaminooxy)-acetic acid], the results for the IC50 in experiment [1] and in experiment [2] were 1.85 µM and 4.03 µM, respectively.

As to `CCOC(=O)CNC(=O)CO/N=C1\c2ccccc2-c2nc(C(N)=O)c(C#N)nc21` [Example 40, [2-(3-carbamoyl-2-cyano-indeno[1,2-b]pyrazin-9-ylideneaminooxy)-acetylamino]-acetic acid ethyl ester], the results for the IC50 in experiment [1] and in experiment [2] (setting [4]) were 1.13 µM and 2.8 µM, respectively.

As for `N#Cc1nc2c(nc1C(N)=O)-c1ccccc1/C2=N\OCC(=O)NCC(=O)O` [Example 41, [2-(3-carbamoyl-2-cyano-indeno[1,2-b]pyrazin-9-ylideneaminooxy)-acetylamino]-acetic acid], the IC50 in experiment [1] worked out at 1.89 µM; in experiment [2] it was 4.28 µM.
